Data published in ChEMBL document CHEMBL3867489, “Design, synthesis, antibacterial activity and docking study of some new trimethoprim derivatives” (2016).
Values after ≈ are worked out from the molar mass of the structure shown.

Tests used:
[1] = test system: Staphylococcus aureus; test: Antibacterial activity against Staphylococcus aureus by agar well diffusion method; type: functional
[2] = test system: Escherichia coli; test: Antibacterial activity against Escherichia coli by agar well diffusion method; type: functional

| MIC [1] [µM] | MIC [2] [µM] | Structure (SMILES) |
| --- | --- | --- |
| 18.7 (≈ 7.94 µg/mL) | 18.7 (≈ 7.94 µg/mL) | COc1ccc(C(=O)COc2c(OC)cc(Cc3cnc(N)nc3N)cc2OC)cc1 |
| 72.9 (≈ 32 µg/mL) | 72.9 (≈ 32 µg/mL) | COc1cc(Cc2cnc(N)nc2N)cc(OC)c1OCC(=O)c1ccc([N+](=O)[O-])cc1 |
| 78.4 (≈ 33.6 µg/mL) | 78.4 (≈ 33.6 µg/mL) | COc1cc(Cc2cnc(N)nc2N)cc(OC)c1OCC(=O)c1ccc(Cl)cc1 |
| 81.2 (≈ 32 µg/mL) | 81.2 (≈ 32 µg/mL) | COc1cc(Cc2cnc(N)nc2N)cc(OC)c1OCC(=O)c1ccccc1 |
| 10 (≈ 3.8 µg/mL) | 5 (≈ 1.9 µg/mL) | COc1cc(Cc2cnc(N)nc2N)cc(OC)c1OCc1ccc(C)cc1 |
| 37.7 (≈ 15.4 µg/mL) | 15.5 (≈ 6.33 µg/mL) | COc1cc(Cc2cnc(N)nc2N)cc(OC)c1OCC(=O)c1ccc(C)cc1 |
| 20 (≈ 8.02 µg/mL) | 8.3 (≈ 3.33 µg/mL) | COc1cc(Cc2cnc(N)nc2N)cc(OC)c1OCc1ccc(Cl)cc1 |
| 5 (≈ 1.98 µg/mL) | 4 (≈ 1.59 µg/mL) | COc1ccc(COc2c(OC)cc(Cc3cnc(N)nc3N)cc2OC)cc1 |

Second part, the molecule before the results:

| Structure (SMILES) | MIC [1] [µM] | MIC [2] [µM] |
| --- | --- | --- |
| COc1cc(Cc2cnc(N)nc2N)cc(OC)c1OCc1ccc([N+](=O)[O-])cc1 | 32.3 (≈ 13.3 µg/mL) | 39 (≈ 16 µg/mL) |
| COc1cc(Cc2cnc(N)nc2N)cc(OC)c1OCc1ccccc1 | 18.2 (≈ 6.67 µg/mL) | 18.2 (≈ 6.67 µg/mL) |
| COc1cc(Cc2cnc(N)nc2/N=C/c2ccc(Cl)cc2)cc(OC)c1O | 535 (≈ 214 µg/mL) | 535 (≈ 214 µg/mL) |
| COc1cc(Cc2cnc(N)nc2/N=C/c2cccc(O)c2)cc(OC)c1O | 672 (≈ 256 µg/mL) | 336 (≈ 128 µg/mL) |
| COc1cc(Cc2cnc(N)nc2/N=C/c2ccc(O)cc2)cc(OC)c1O | 672 (≈ 256 µg/mL) | 672 (≈ 256 µg/mL) |
| COc1cc(Cc2cnc(N)nc2N)cc(OC)c1O [4-HYDROXYTRIMETHOPRIM] | 24.1 (≈ 6.66 µg/mL) | 48.2 (≈ 13.3 µg/mL) |
| COc1cc(Cc2cnc(N)nc2N)cc(OC)c1OC [TRIMETHOPRIM] | 22.7 (≈ 6.59 µg/mL) | 55.1 (≈ 16 µg/mL) |
